Reference: patent US6630124B1, “Combination therapy with VIP antagonist” (Ramot-University Authority for Applied Research and …, priority 1998, dated 2003)
Where a SMILES comes first, the peptide text is derived from it. [ ]: non-standard residue; d: D form. The star is where a group is joined. Stearoyl = CCCCCCCCCCCCCCCCCC(=O)*; Nle = CCCC[C@H](N)C(=O)O

How the values were obtained:
[1] = test system: VIP receptor (glioblastoma cells); experiment: cAMP in glioblastoma cells, basal and VIP-stimulated; type: cell-based
From the text: (§1) The effects of VIP receptor antagonists on glioblastoma cell lines were investigated.

glioblastoma cell lines = experiment: MTT assay, glioblastoma proliferation; type: cell-based
From the text: as §1

cancer cells = experiment: MTS cell proliferation assay, inhibition of cell growth by SNH; type: cell-based
From the text: For growth inhibition experiments, subconfluent adherent cells were washed with PBS and treated with trypsin/versene. The cells were pelleted and resuspended in medium to a final concentration of 75,000 cells/mL for NCI-H727. 50,000 cells/mL for LNCaP and HT-29 and 25000 cells/mL for CT-26. These different concentrations were used in order to avoid confluence in the wells at the end of the experiment and correspond to the different doubling times of the cell lines.
On day 0, cells suspensions […] were dispensed using a multi-channel pipet into the individual wells of a 96-well tissue culture plate (Nuncion, Nunc Brand Products). […] Cells were incubated for 24 hours in a humidified atmosphere of 95% air/5% CO2 at 37° C. before treatment. […]
On day 4, viable cell number was determined by a modified MTT assay i.e., MTS non-radioactive cell proliferation assay (Promega). Briefly, […] of freshly prepared MTS/PMS solution was added to each individual well and after 1-3 hours of incubation (the optimal time was determined for each cell line) absorbance at 490 nm was measured using a multiscan plate reader. Results were finally expressed as percentage of the control, which was obtained from the samples with no drug treatment. Dose-response curves were plotted using a Sigma-Plot software and statistically analyzed using Student test. […]

MCF-7 cells = experiment: MTT colorimetric assay, breast cancer cells (Example 6); type: cell-based; settings: compared with VIPhyb
Experimental: The ability of VIP receptor antagonists to alter the growth of breast cancer cells was investigated in vitro using the MTT colorimetric. The semiautomated MTT assay measures reduction of a tetrazolium compound by tumor cells to formazan. The optical density at 570 nm was determined for 8 wells at each inhibitor concentration. Seeding densities were 5×10^4 cells/well and cells were grown in 96 well plates for 5 days.

[2] = test system: panel of 56 cancer cell lines; experiment: NCI "compare analysis", panel of 56 cancer cell lines; type: cell-based
From the text: The mean value±S. D. of 8 determinations is indicated; *, p<0.05 using student's t-test. (SN)VIPhyb inhibited the growth of leukemia (CCRF-CEM), HL-60(TB), K-562, MOLT-4, RPMI-8226, SR), non-small cell lung cancer (A549, EKVX, HOP-62, HOP-92, H23, H322M, H460 and H522), colon cancer (COLO205, HCC-2998, HCT-116, HT29, KM12, SW-620), CNS cancer (SF-268, SF-295, SF-539, SNB-19, U251), melanoma (LOX IMVI, MALME-3M, M14, SK-MEL-2, SK-MEL-28, SK-MEL-5, UACC-257, UACC-62), ovarian cancer (IGROV1, OVCAR-3, OVCAR-5, OVCAR-8, SK-OV-3), renal cancer (786-0, A498, CAKI-1, RXF 393, SM12C, TK-l0), prostate cancer (PC-3, DU-145) and breast cancer (MCF-7, MDA-MB-231, HS 578T, MDA-MB-435, MDA-N and T-47D).

[3] = test system: nonsmall cell lung cancer line; settings: 2 mM of the antagonist
Experimental: Assays were performed with cell lines derived from colon cancer and prostate cancer. Proliferation was assessed using the MTS colorimetric assay of mitochondrial function for living cells. The VIP antagonist (stearyl-Nle17-neurotensis 6-11 VIP 7-28) was used.

SMILES: CCCCCCCCCCCCCCCCCC(=O)N[C@@H](CCCCN)C(=O)N1CCC[C@H]1C(=O)N[C@@H](CCCNC(=N)N)C(=O)N[C@@H](CCCNC(=N)N)C(=O)N1CCC[C@H]1C(=O)N[C@@H](Cc1ccc(O)cc1)C(=O)N[C@H](C(=O)N[C@@H](CC(=O)O)C(=O)N[C@@H](CC(N)=O)C(=O)N[C@@H](Cc1ccc(O)cc1)C(=O)N[C@H](C(=O)N[C@@H](CCCNC(=N)N)C(=O)N[C@@H](CC(C)C)C(=O)N[C@@H](CCCNC(=N)N)C(=O)N[C@@H](CCCCN)C(=O)N[C@@H](CCC(N)=O)C(=O)N[C@@H](CCCC)C(=O)N[C@@H](C)C(=O)N[C@H](C(=O)N[C@@H](CCCCN)C(=O)N[C@@H](CCCCN)C(=O)N[C@@H](Cc1ccc(O)cc1)C(=O)N[C@@H](CC(C)C)C(=O)N[C@@H](CC(N)=O)C(=O)N[C@@H](CO)C(=O)N[C@H](C(=O)N[C@@H](CC(C)C)C(=O)N[C@@H](CC(N)=O)C(N)=O)[C@@H](C)CC)C(C)C)[C@@H](C)O)[C@@H](C)O [SNH] (Stearoyl-KPRRPYTDNYTRLRKQ[Nle]AVKKYLNSILN-NH2)
- order of peptide potency, inhibition of VIP-stimulated cAMP ([1]; 10 nM VIP): (SN)VIPhybrid>VIP hybrid >PTC4495
- effect on basal cAMP ([1]; 1 μM): no effect
- inhibition of the increase in cAMP caused by 10 nM VIP ([1]; 1 μM, 10 nM VIP): strongly inhibited
- effect on basal proliferation (glioblastoma cell lines; 1 μM): little effect
- interaction with Taxol to inhibit growth (glioblastoma cell lines; 1 μM (SN)VIPhybrid with Taxol): synergistically interacted
- inhibition of the growth of cancer cells (cancer cells; 10 mM of SNH): significantly inhibits
- death of the cancer cells (cancer cells; 8-10 mM SNH, FCS lower than 2%): complete or almost complete death
- relative potency as inhibitor of proliferation (MCF-7 cells): more potent inhibitor than VIPhyb
- cell lines significantly inhibited ([2]; CNS cancer): 5/5
- cell lines whose proliferation was significantly inhibited ([2]; all cell lines tested): 51 of 56
- cell lines significantly inhibited ([2]; breast cancer): 6/8
- cell lines significantly inhibited ([2]; colon cancer): 6/7
- cell lines significantly inhibited ([2]; leukemia): 6/6
- cell lines significantly inhibited ([2]; melanoma): 8/8
- cell lines significantly inhibited ([2]; non-small cell lung cancer): 7/7
- cell lines significantly inhibited ([2]; ovarian cancer): 5/6
- cell lines significantly inhibited ([2]; prostate cancer): 2/2
- cell lines significantly inhibited ([2]; renal cancer): 6/7
- growth inhibition [3]: 15-20%
